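Values below derive from 48-hour exposures of cells grown in 96-well plates, with endpoints linearly interpolated between the two concentrations bracketing the appropriate inhibition level. The concentration for 50% growth inhibition is given as GI50.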 The source made the active and inactive calls. No stated cut-off is given here; in the data, active = GI50 up to about 1.1 µM and inactive = higher.
Assays:
Experiment in all cases: NCI anticancer screen, dose series, 48 h
[1] = tested on: HCT-116
[2] = tested on: OVCAR-3
[3] = tested on: SK-MEL-28
[4] = tested on: PC-3
[5] = tested on: IGROV-1
[6] = tested on: DU-145
[7] = tested on: Malme-3M
[8] = tested on: LOX IMVI
[9] = tested on: HOP-62
[10] = tested on: SN12C
[11] = tested on: NCI/ADR-RES
[12] = tested on: MCF7
[13] = tested on: NCI-H23
[14] = tested on: SK-MEL-2
[15] = tested on: HCC 2998
[16] = tested on: OVCAR-5
[17] = tested on: OVCAR-8
[18] = tested on: KM12
[19] = tested on: SNB-75
[20] = tested on: OVCAR-4

Measured: GI50

O=C(c1ccccc1)C1C(C(=O)c2ccccc2)C(c2ccccc2)N(c2ccccc2)C1c1ccccc1 (stereo unspecified)
inactive: [1] > 100 µM | [2] > 100 µM | [3] > 100 µM | [4] > 100 µM | [5] > 100 µM | [6] > 100 µM | [7] > 100 µM | [8] > 100 µM | [9] > 100 µM | [10] > 100 µM | [11] > 100 µM | [12] > 100 µM | [13] > 100 µM | [14] > 100 µM | [15] > 100 µM | [16] > 100 µM | [17] > 100 µM

CC1(C)S[C@@H]2[C@H](NC(=O)[C@H](N)c3ccccc3)C(=O)N2[C@H]1C(=O)O [AMPICILLIN]
inactive: [1] > 100 µM | [2] > 100 µM | [3] > 100 µM | [4] > 100 µM | [5] > 100 µM | [6] > 100 µM | [18] > 100 µM | [8] > 100 µM | [9] > 100 µM | [10] > 100 µM | [19] > 100 µM | [11] > 100 µM | [12] > 100 µM | [13] > 100 µM | [14] > 100 µM | [15] > 100 µM | [16] > 100 µM | [17] > 100 µM

COc1cc(C2SC(=N)Nc3c2c(C)nn3C(=O)c2ccccc2O)cc(OC)c1OC (stereo unspecified)
inactive: [1] 1.59 µM | [2] > 10 µM | [3] > 10 µM | [4] 5.48 µM | [5] 2.04 µM | [6] 5.12 µM | [7] > 10 µM | [18] 8.3 µM | [8] 5.16 µM | [9] 6.15 µM | [10] 9.18 µM | [19] 1.87 µM | [11] 4.38 µM | [12] > 10 µM | [13] 8.3 µM | [14] > 10 µM | [20] 4.89 µM | [16] > 10 µM | [17] > 10 µM

CNC1C(O)C(OC2C(N)CC(N)C(OC3OC(CN)=CCC3N)C2O)OCC1(C)O (stereo unspecified)
inactive: [1] > 100 µM | [2] > 100 µM | [3] > 100 µM | [4] > 100 µM | [5] > 100 µM | [6] > 100 µM | [7] > 100 µM | [18] > 100 µM | [8] > 100 µM | [9] > 100 µM | [10] > 100 µM | [19] > 100 µM | [11] > 100 µM | [12] > 100 µM | [13] > 100 µM | [14] > 100 µM | [15] > 100 µM | [16] > 100 µM | [17] > 100 µM

COC(=O)/C=C\[C@@H]1[C@H](C)N1S(=O)(=O)c1ccc(C)cc1 (stereo partly specified)
inactive: [1] > 100 µM | [2] > 100 µM | [3] > 100 µM | [4] > 100 µM | [5] > 100 µM | [6] > 100 µM | [7] > 100 µM | [8] > 100 µM | [9] > 100 µM | [10] > 100 µM | [11] > 100 µM | [12] > 100 µM | [13] > 100 µM | [14] > 100 µM | [15] > 100 µM | [20] > 100 µM | [16] > 100 µM | [17] > 100 µM

Cc1c2ccccc2cc2cccc[n+]12
inactive: [1] 37.2 µM | [2] 24.4 µM | [3] 25.7 µM | [4] 30 µM | [5] 26.1 µM | [6] 61.4 µM | [7] 11.3 µM | [18] 6.52 µM | [8] 27.8 µM | [9] 21.6 µM | [10] 29.6 µM | [19] 21.9 µM | [11] > 100 µM | [12] 57.7 µM | [13] 18.2 µM | [14] 41.3 µM | [15] 15.2 µM | [16] 56.6 µM | [17] 31.6 µM

CC1(C)OCC2OC3([C@H](O)CCO)OC(C)(C)OC3C2O1 (stereo partly specified)
inactive: [1] > 100 µM | [2] > 100 µM | [3] > 100 µM | [4] > 100 µM | [5] > 100 µM | [6] > 100 µM | [18] > 100 µM | [8] > 100 µM | [9] > 100 µM | [10] > 100 µM | [19] > 100 µM | [11] > 100 µM | [12] > 100 µM | [13] > 100 µM | [14] > 100 µM | [15] > 100 µM | [20] > 100 µM | [16] > 100 µM | [17] > 100 µM

O=[N+]([O-])c1ccc(N/N=C2\C=CCCC2)c([N+](=O)[O-])c1
inactive: [1] > 100 µM | [2] > 100 µM | [3] > 100 µM | [4] > 100 µM | [5] 73.1 µM | [6] > 100 µM | [7] > 100 µM | [18] > 100 µM | [8] > 100 µM | [9] 63.5 µM | [10] > 100 µM | [19] 27.2 µM | [11] > 100 µM | [12] > 100 µM | [13] > 100 µM | [14] > 100 µM | [20] > 100 µM | [16] > 100 µM | [17] > 100 µM

COc1ccc(Cc2coc3ccccc3c2=O)cc1OC
inactive: [1] 45.7 µM | [2] 78 µM | [3] > 100 µM | [4] 93.5 µM | [5] > 100 µM | [6] > 100 µM | [7] > 100 µM | [8] 49.9 µM | [9] 56.1 µM | [10] > 100 µM | [19] > 100 µM | [11] 36.1 µM | [12] 46.2 µM | [13] 28.3 µM | [14] > 100 µM | [20] 28.4 µM | [16] > 100 µM | [17] > 100 µM

CC[S+]([O-])C(=O)N(O)c1ccc(Cl)cc1 (stereo unspecified)
inactive: [1] 24.4 µM | [2] 31.6 µM | [3] 17.4 µM | [4] 37.4 µM | [6] > 100 µM | [18] 15.6 µM | [8] 11.7 µM | [9] > 100 µM | [10] 22.3 µM | [19] 32.1 µM | [11] 24.9 µM | [12] 20.4 µM | [14] 15.3 µM | [15] 43.3 µM | [20] 38.3 µM | [16] 17.7 µM

c1cncc(CNc2ncn[nH]2)c1
inactive: [1] > 100 µM | [2] > 100 µM | [3] > 100 µM | [4] > 100 µM | [5] > 100 µM | [6] > 100 µM | [7] > 100 µM | [18] > 100 µM | [8] > 100 µM | [9] > 100 µM | [10] > 100 µM | [19] > 100 µM | [11] > 100 µM | [12] > 100 µM | [13] > 100 µM | [14] > 100 µM | [20] > 100 µM | [16] > 100 µM | [17] > 100 µM

Source: ChEMBL document CHEMBL1201862, “PubChem BioAssay data set” (2004)
